In the supplement of paper PMC11061612:

What was measured:
5-Fluorouracil = compound: O=c1[nH]cc(F)c(=O)[nH]1 [5-Fluorouracil]; conditions: max 20 µM
Method in brief: (§1)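 Cancer cell lines in 1536-well plates (7.5 μl DMEM/F12 or RPMI, 10% FBS) were held 24 hours at 37°C and 5% CO2 and then dosed for 72 hours at a final DMSO of typically 0.2%. Viability was taken from CellTiter-Glo 2.0 luminescence, scaled between blank-well and DMSO-well means. Curves were fitted as two-parameter logistic models with a non-linear mixed effects model, from which the single-agent IC50 was taken.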

AZD1775 = compound: C=CCn1c(=O)c2cnc(Nc3ccc(N4CCN(C)CC4)cc3)nc2n1-c1cccc(C(C)(C)O)n1 [AZD1775]; conditions: max 3 µM
Method in brief: as §1

SRA737 = compound: N#Cc1cnc(Nc2cc(NC[C@H]3CNCCO3)c(C(F)(F)F)cn2)cn1 [SRA737]; conditions: max 10 µM
Method in brief: as §1

AZD5991 = compound: Cc1c2c(nn1C)CSCc1cc(n(C)n1)CSc1cc(c3ccccc3c1)OCCCc1c(C(=O)O)n(C)c3c-2c(Cl)ccc13 [AZD5991]; conditions: max 1 µM
Method in brief: as §1

Gemcitabine = compound: Nc1ccn([C@@H]2O[C@H](CO)[C@@H](O)C2(F)F)c(=O)n1 [Gemcitabine]; conditions: max 0.3 µM
Method in brief: as §1

Carboplatin = compound: C1CC(C1)(C(=O)[O-])C(=O)[O-].N.N.[Pt+2] [Carboplatin]; conditions: max 10 µM
Method in brief: as §1

Savolitinib = compound: C[C@@H](c1ccc2nccn2c1)n1nnc2ncc(-c3cnn(C)c3)nc21 [Savolitinib]; conditions: max 1 µM
Method in brief: as §1

AZD8186 = compound: C[C@@H](Nc1cc(F)cc(F)c1)c1cc(C(=O)N(C)C)cc2c(=O)cc(N3CCOCC3)oc12 [AZD8186]; conditions: max 10 µM
Method in brief: as §1

AZD6738 = compound: C[C@@H]1COCCN1C2=NC(=NC(=C2)C3(CC3)[S@](=N)(=O)C)C4=C5C=CNC5=NC=C4 [AZD6738]; conditions: max 10 µM
Method in brief: as §1

AZD7648 = compound: Cc1cc2ncnn2cc1Nc1ncc2c(n1)n(C1CCOCC1)c(=O)n2C [AZD7648]; conditions: max 10 µM
Method in brief: as §1

AZD5153 = compound: COc1nnc2ccc(N3CCC(c4ccc(OCCN5CCN(C)C(=O)[C@H]5C)cc4)CC3)nn12 [AZD5153]; conditions: max 1 µM
Method in brief: as §1

Dasatinib = compound: CC1=C(C(=CC=C1)Cl)NC(=O)C2=CN=C(S2)NC3=CC(=NC(=N3)C)N4CCN(CC4)CCO [Dasatinib]; conditions: max 2 µM
Method in brief: as §1

Olaparib = compound: O=C(c1cc(Cc2n[nH]c(=O)c3ccccc23)ccc1F)N1CCN(C(=O)C2CC2)CC1 [Olaparib]; conditions: max 10 µM
Method in brief: as §1

SN-38 = compound: CCc1c2c(nc3ccc(O)cc13)-c1cc3c(c(=O)n1C2)COC(=O)[C@]3(O)CC [SN-38]; conditions: max 0.3 µM
Method in brief: as §1

[1] = compound: O=C(Nc1ccc2[nH]nc(-c3ccncc3)c2c1)[C@@H]1CCN(CC(=O)N2CCN(c3ccc(-c4ncccn4)cc3)CC2)C1; conditions: max 5 µM
Method in brief: as §1

Crizotinib = compound: C[C@@H](Oc1cc(-c2cnn(C3CCNCC3)c2)cnc1N)c1c(Cl)ccc(F)c1Cl [Crizotinib]; conditions: max 10 µM
Method in brief: as §1

Paclitaxel = compound: CC(=O)O[C@H]1C(=O)[C@@]2(C)[C@H]([C@H](OC(=O)c3ccccc3)[C@]3(O)C[C@H](OC(=O)[C@H](O)[C@@H](NC(=O)c4ccccc4)c4ccccc4)C(C)=C1C3(C)C)[C@]1(OC(C)=O)CO[C@@H]1C[C@@H]2O [Paclitaxel]; conditions: max 3 µM
Method in brief: as §1

AZD5363 = compound: C1CN(CCC1(C(=O)N[C@@H](CCO)C2=CC=C(C=C2)Cl)N)C3=NC=NC4=C3C=CN4 [AZD5363]; conditions: max 10 µM
Method in brief: as §1

SG3199 = compound: CC1=CN2[C@@H](C1)C=NC3=CC(=C(C=C3C2=O)OC)OCCCCCOC4=C(C=C5C(=C4)N=C[C@@H]6CC(=CN6C5=O)C)OC [SG3199]; conditions: max 0.001 µM
Method in brief: as §1

Taselisib = compound: Cc1nc(-c2cn3c(n2)-c2ccc(-c4cnn(C(C)(C)C(N)=O)c4)cc2OCC3)n(C(C)C)n1 [Taselisib]; conditions: max 10 µM
Method in brief: as §1

Venetoclax = compound: CC1(C)CCC(CN2CCN(c3ccc(C(=O)NS(=O)(=O)c4ccc(NCC5CCOCC5)c([N+](=O)[O-])c4)c(Oc4cnc5[nH]ccc5c4)c3)CC2)=C(c2ccc(Cl)cc2)C1 [Venetoclax]; conditions: max 1 µM
Method in brief: as §1

AZD0156 = compound: CN(C)CCCOc1ccc(-c2ccc3ncc4c(c3c2)n(C2CCOCC2)c(=O)n4C)cn1 [AZD0156]; conditions: max 3 µM
Method in brief: as §1

Gefitinib = compound: COc1cc2ncnc(Nc3ccc(F)c(Cl)c3)c2cc1OCCCN1CCOCC1 [Gefitinib]; conditions: max 10 µM
Method in brief: as §1

AZD2811 = compound: CCN(CCO)CCCOc1ccc2c(Nc3cc(CC(=O)Nc4cccc(F)c4)[nH]n3)ncnc2c1 [AZD2811]; conditions: max 1 µM
Method in brief: as §1

Etoposide = compound: COc1cc([C@@H]2c3cc4c(cc3[C@@H](O[C@@H]3O[C@@H]5CO[C@@H](C)O[C@H]5[C@H](O)[C@H]3O)[C@H]3COC(=O)[C@H]23)OCO4)cc(OC)c1O [Etoposide]; conditions: max 10 µM
Method in brief: as §1

Alisertib = compound: COc1cc(Nc2ncc3c(n2)-c2ccc(Cl)cc2C(c2c(F)cccc2OC)=NC3)ccc1C(=O)O [Alisertib]; conditions: max 10 µM
Method in brief: as §1

Prexasertib = compound: COc1cccc(OCCCN)c1-c1cc(Nc2cnc(C#N)cn2)n[nH]1 [Prexasertib]; conditions: max 1 µM
Method in brief: as §1

AZD1390 = compound: CC(C)n1c(=O)n(C)c2cnc3cc(F)c(-c4ccc(OCCCN5CCCCC5)nc4)cc3c21 [AZD1390]; conditions: max 0.3 µM
Method in brief: as §1

Doxorubicin = compound: COc1cccc2c1C(=O)c1c(O)c3c(c(O)c1C2=O)C[C@@](O)(C(=O)CO)C[C@@H]3O[C@H]1C[C@H](N)[C@H](O)[C@H](C)O1 [Doxorubicin]; conditions: max 1 µM
Method in brief: as §1

Selumetinib = compound: Cn1cnc2c(F)c(Nc3ccc(Br)cc3Cl)c(C(=O)NOCCO)cc21 [Selumetinib]; conditions: max 10 µM
Method in brief: as §1

MK-2206 = compound: NC1(c2ccc(-c3nc4ccn5c(=O)[nH]nc5c4cc3-c3ccccc3)cc2)CCC1 [MK-2206]; conditions: max 10 µM
Method in brief: as §1

Palbociclib = compound: CC(=O)c1c(C)c2cnc(Nc3ccc(N4CCNCC4)cn3)nc2n(C2CCCC2)c1=O [Palbociclib]; conditions: max 10 µM
Method in brief: as §1

Lapatinib = compound: CS(=O)(=O)CCNCc1ccc(-c2ccc3ncnc(Nc4ccc(OCc5cccc(F)c5)c(Cl)c4)c3c2)o1 [Lapatinib]; conditions: max 10 µM
Method in brief: as §1

AZD4320 = compound: CN(CC[C@H](CSC1=CC=CC=C1)NC2=C(C=C(C=C2)S(=O)(=O)NC(=O)C3=CC=C(C=C3)N4CCC(CC4)[C@H](C5=CC=CC=C5C6=CC=C(C=C6)Cl)O)S(=O)(=O)C(F)(F)F)CCO [AZD4320]; conditions: max 1 µM
Method in brief: as §1

Trametinib = compound: CC(=O)Nc1cccc(-n2c(=O)n(C3CC3)c(=O)c3c(Nc4ccc(I)cc4F)n(C)c(=O)c(C)c32)c1 [Trametinib]; conditions: max 1 µM
Method in brief: as §1

With NCI-H2452 (Mesothelioma) the “IC50, cell viability 72 h” value (5-Fluorouracil) was over 20000 nM, the “IC50, cell viability 72 h” value (AZD1775) was 710 nM and the “IC50, cell viability 72 h” value (SRA737) was over 10000 nM. The “IC50, cell viability 72 h” value (AZD5991) was over 1000 nM, the “IC50, cell viability 72 h” value (Gemcitabine) was over 300 nM and the “IC50, cell viability 72 h” value (Carboplatin) was over 10000 nM. For the same cell line, the “IC50, cell viability 72 h” value (Savolitinib) was over 1000 nM, the “IC50, cell viability 72 h” value (AZD8186) was over 10000 nM and the “IC50, cell viability 72 h” value (AZD6738) was over 10000 nM. The “IC50, cell viability 72 h” value (AZD7648) was over 10000 nM, the “IC50, cell viability 72 h” value (AZD5153) was over 1000 nM and the “IC50, cell viability 72 h” value (Dasatinib) was 531 nM. For the same cell line, the “IC50, cell viability 72 h” value (Olaparib) was over 10000 nM, the “IC50, cell viability 72 h” value (SN-38) was over 300 nM and the “IC50, cell viability 72 h” value [1] was over 5000 nM. For the same cell line, the “IC50, cell viability 72 h” value (Crizotinib) was over 10000 nM, the “IC50, cell viability 72 h” value (Paclitaxel) was 97 nM and the “IC50, cell viability 72 h” value (AZD5363) was over 10000 nM. For the same cell line, the “IC50, cell viability 72 h” value (SG3199) was over 1 nM, the “IC50, cell viability 72 h” value (Taselisib) was over 10000 nM and the “IC50, cell viability 72 h” value (Venetoclax) was over 1000 nM. The “IC50, cell viability 72 h” value (AZD0156) was over 3000 nM, the “IC50, cell viability 72 h” value (Gefitinib) was over 10000 nM and the “IC50, cell viability 72 h” value (AZD2811) was over 1000 nM. The “IC50, cell viability 72 h” value (Etoposide) was over 10000 nM, the “IC50, cell viability 72 h” value (Alisertib) was 8630 nM and the “IC50, cell viability 72 h” value (Prexasertib) was 244 nM. For the same cell line, the “IC50, cell viability 72 h” value (AZD1390) was over 300 nM, the “IC50, cell viability 72 h” value (Doxorubicin) was over 1000 nM and the “IC50, cell viability 72 h” value (Selumetinib) was over 10000 nM. For the same cell line, the “IC50, cell viability 72 h” value (MK-2206) was over 10000 nM, the “IC50, cell viability 72 h” value (Palbociclib) was over 10000 nM and the “IC50, cell viability 72 h” value (Lapatinib) was over 10000 nM. The “IC50, cell viability 72 h” value (AZD4320) was over 1000 nM and the “IC50, cell viability 72 h” value (Trametinib) was over 1000 nM.
